Legend:
dopamine D2 receptors [1] = target: T1, dopamine D2 receptors (Homo sapiens (Human), UniProt P14416); experiment: Affinity for dopamine D2 receptors, radioligand competition with [3H]-Methylspiperone; format: binding; settings: 293T membrane transiently expressing D2
Method: The affinity of the compounds of the present disclosure for the dopamine D2 receptors was determined by the method of radioligand competition experiment. In the first step, a cell membrane component containing specific dopamine D2 receptors was prepared. A 10 cm culture dish was used for transfection with 10 ng of the dopamine D2 receptors and 40 μL of polyethylenimine (PEI hereafter). After 48 hours, the 10 cm culture dish was taken out from the cell culture incubator and the cultured cells had expressed the dopamine D2 receptors. A vacuum pump was used to suck off the culture medium, 3 mL of lysis buffer was added to each culture dish, and the cells were placed in a 4° C. cold room for 10 minutes. After the cells were detached, the cells were transferred to a 15 mL centrifuge tube and centrifuged at 1500 rpm for 5 minutes at 4° C., and the supernatant was discarded. The cell pellet was transferred to a tissue homogenizer, and 3 mL of lysis buffer was added and fully ground until the cells were broken. Then, cell suspension was equally aliquoted into several EP tubes, centrifuged at 12000 rpm for 5 minutes at 4° C., and the supernatant was discarded. The precipitate was the cell membrane component containing the dopamine D2 receptors. […] First, a standard binding buffer was added to the cell membrane component containing the dopamine D2 receptors, and the cell membrane was disrupted and resuspended with an electric tissue homogenizer. 30 μL of membrane protein suspension was added to each well of a 96-well plate. Then, 30 μL of different drugs were added to the 96-well plate sequentially from bottom to top to ensure that the final drug concentrations were 10^−5 M, 10^−6 M, 10^−7 M, 10^−8 M, 10^−9 M, and 0 M, with two replicates per treatment. Next, 30 μL of [3H]-Methylspiperone was added to each well of the 96-well plate. The plate was incubated for 2 hours at room temperature in the dark. Detection was conducted. The machine readout value reflected the amount of [3H]-Methylspiperone bound on the membrane, and after further data processing, the affinity Ki values of different compounds for the dopamine D2 receptors were obtained.

5-HT2A receptor = 5-HT2A receptor (Homo sapiens (Human), UniProt P28223); experiment: Affinity for 5-HT2A receptors, radioligand competition with [3H]-ketanserin; format: binding; settings: 293T membrane transiently expressing 5-HT2A
Chain of 5-HT2A receptor (P28223 whole entry): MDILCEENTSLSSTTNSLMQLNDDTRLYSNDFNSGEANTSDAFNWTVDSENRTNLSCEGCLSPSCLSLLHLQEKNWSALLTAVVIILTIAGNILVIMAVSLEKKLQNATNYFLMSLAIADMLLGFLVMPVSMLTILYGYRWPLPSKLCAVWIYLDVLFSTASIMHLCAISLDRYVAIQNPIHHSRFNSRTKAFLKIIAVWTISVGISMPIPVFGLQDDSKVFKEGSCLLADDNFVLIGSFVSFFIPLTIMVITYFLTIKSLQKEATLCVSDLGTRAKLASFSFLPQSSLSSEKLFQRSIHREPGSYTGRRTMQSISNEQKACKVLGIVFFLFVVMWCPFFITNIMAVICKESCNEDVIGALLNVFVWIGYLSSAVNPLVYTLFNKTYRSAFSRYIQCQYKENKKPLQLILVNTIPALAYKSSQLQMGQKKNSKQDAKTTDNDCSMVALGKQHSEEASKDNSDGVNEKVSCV
Method: The affinity of the compounds of the present disclosure for the 5-HT2A receptors was determined by the method of radioligand competition experiment. In the first step, a cell membrane component containing specific 5-HT2A receptor was prepared. A 10 cm dish was used for transfection with 10 ng of the 5-HT2A receptor and 40 μL of PEI. After 48 hours, the 10 cm dish was taken out from the cell incubator and the cultured cells had expressed the 5-HT2A receptor. A vacuum pump was used to suck off the culture medium, 3 mL of lysis buffer was added to each culture dish, and the cells were placed in a 4° C. cold room for 10 minutes. After the cells were detached, the cells were transferred to a 15 mL centrifuge tube and centrifuged at 1500 rpm for 5 minutes at 4° C., and the supernatant was discarded. The cell pellet was transferred to a tissue homogenizer, and 3 mL of lysis buffer was added and fully ground until the cells were broken. Then, cell suspension was equally aliquoted into several EP tubes, centrifuged at 12000 rpm for 5 minutes at 4° C., and the supernatant was discarded. The precipitate was the cell membrane component containing the 5-HT2A receptor. […] First, a standard binding buffer was added to the cell membrane component containing the 5-HT2A receptor, and the cell membrane was disrupted and resuspended with an electric tissue homogenizer. 30 μL of membrane protein suspension was added to each well of a 96-well plate. Then, 30 μL of different drugs were added to the 96-well plate sequentially from bottom to top to ensure that the final drug concentrations were 10^−5 M, 10^−6 M, 10^−7 M, 10^−8 M, 10^−9 M, and 0 M, with two replicates per treatment. Next, 30 μL of [3H]-ketanserin was added to each well of the 96-well plate. The plate was incubated for 2 hours at room temperature in the dark. Detection was conducted. The machine readout value reflected the amount of [3H]-ketanserin bound on the membrane, and after further data processing, the affinity Ki values of different compounds for the 5-HT2A receptor were obtained.

dopamine D2 receptors [2] = target: T1, dopamine D2 receptors; experiment: Dopamine D2 receptor Gαi1 BRET (G protein trimer dissociation); format: cell-based; settings: D2 receptor, G protein pathway;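 further: transfected cells co-expressing D2 receptor, Gαi1-Rluc, Gβ3 and Gγ9-GFP, BRET with coelenterazine 400a at 5 µM read as G protein trimer dissociation, graded drug concentrations in duplicate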
Method: To examine the downstream G protein signaling pathway mediated by dopamine D2 receptors, on the first day, a 6 cm culture dish was used for transfection with 1 μg of dopamine D2 receptors, 1 μg of Gαi1 containing a C-terminal seaweed luciferase (Gαi1-Rluc), 1 μg of Gβ3, 1 μg of Gγ9 containing C-terminal green fluorescent protein (Gγ9-GFP), and 16 μL of PEI. At the same time, in order to examine the downstream β-arrestin2 signaling pathway mediated by dopamine D2 receptors, on the first day, a 6 cm culture dish was used for transfection with 500 μg of dopamine D2 receptors containing C-terminal seaweed luciferase (D2-Rluc), 500 μg of G protein-coupled receptor kinase 2 (GRK2), 2500 μg of β-arrestin2 containing N-terminal green fluorescent protein (GFP2-ARRB2) mixed with 14 μL of PEI. The next day, the confluent cells of a 6 cm culture dish were digested and reseeded into a 96-well plate with 100 μL of culture medium added to each well. On the third day, the drugs were added for test. The 96-well plate was taken out from the cell incubator to decant the culture medium, 40 μL of the substrate coelenterazine 400a (final concentration of 5 μM) was added to each well, and then 20 μL of different drugs were added sequentially from left to right to ensure that the final concentration of the drug decreased gradually from bottom to top, with two replicates per treatment. Finally, the prepared samples were loaded on machine for test. The machine readout value reflected the recruitment of β-arrestin2 to the membrane or the dissociation of G protein trimer. The former indicated the degree of activation of the β-arrestin2 signaling pathway downstream of the dopamine D2 receptors, and the latter indicated the degree of activation of the G protein signaling pathway downstream of the dopamine D2 receptors.

[3] = test system: hyperlocomotion of the mice induced by MK801; experiment: Open field test, hyperlocomotion induced by MK801; format: in vivo, C57B6 male mice; settings: for Distance (cm) travelled in 45 minutes: 0-45 minute interval after MK-801; for Distance travelled (cm): 5-minute bin
Method: Experimental method: The experimental animals were C57B6 male mice, n=8 in each group. This model used C57B6 mice as experimental animals. Hyperlocomotion of the mice in open field was induced by acute injection of a NMDA antagonist MK801. and modeled to test the inhibitory effect of different compounds on hyperkinesia phenotype induced by MK801. All mouse behavior experiments were carried out during the light period, and the whole process was recorded by the camera and locomotive data were tracked and analyzed by behavioral tracking software. The compounds were administered intraperitoneally. Immediately after the injection, the mice entered the open field and their movement trajectories were recorded by the camera. After 30 minutes, the mice received 0.2 mg/kg of MK801 by intraperitoneal injection and returned to the open field immediately after administration and the movement trajectories were further recorded for 120 minutes. The accumulative travelled distance of the mice was counted in a 5-minute bin. Data statistics were performed using Student-t-test analysis, *p<0.05, ** p<0.01, *** p<0.001, **** p<0.0001.

T1 sequence (P14416 whole entry): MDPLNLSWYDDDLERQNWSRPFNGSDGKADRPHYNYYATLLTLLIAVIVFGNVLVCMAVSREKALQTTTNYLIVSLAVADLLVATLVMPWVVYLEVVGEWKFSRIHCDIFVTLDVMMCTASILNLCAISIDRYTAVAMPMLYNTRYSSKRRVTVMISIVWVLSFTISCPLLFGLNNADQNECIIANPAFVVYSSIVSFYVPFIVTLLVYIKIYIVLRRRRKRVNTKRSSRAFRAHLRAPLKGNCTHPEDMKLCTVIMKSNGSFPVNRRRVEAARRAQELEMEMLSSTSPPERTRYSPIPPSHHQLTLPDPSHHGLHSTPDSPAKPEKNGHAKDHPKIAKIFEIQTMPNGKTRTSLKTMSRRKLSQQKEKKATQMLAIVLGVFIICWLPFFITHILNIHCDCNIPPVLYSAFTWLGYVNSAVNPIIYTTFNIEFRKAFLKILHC

CN(C)C(=O)N[C@H]1CC[C@H](CCN2CCN3c4cccc5scc(c45)CC3C2)CC1 (single isomer, unassigned; (-)) [(−)-I-27]
Ki (dopamine D2 receptors [1]): 120 nM
Ki (5-HT2A receptor): 2290 nM
Gαi1 BRET (Emax %) (dopamine D2 receptors [2]): (72.04%)
EC50 (dopamine D2 receptors [2]; read-out: Gαi1 BRET EC50): 3.76 nM
Inhibition of MK801-induced hyperlocomotion ([3]; 0.4/0.2/0.1 mg/kg intraperitoneally, MK801 0.2 mg/kg): significantly inhibit hyperlocomotion
Distance (cm) travelled in 45 minutes ([3]; (−)-I-27 0.1 mg/kg i.p. + MK801 0.2 mg/kg): 6882.3 cm
Distance travelled (cm) ([3]; (−)-I-27 0.1 mg/kg i.p. + MK801 0.2 mg/kg, 5 minutes after MK801): 420.96 ± 66.32 cm
Distance travelled (cm) ([3]; (−)-I-27 0.1 mg/kg i.p. + MK801 0.2 mg/kg, 10 minutes after MK801): 405.21 ± 55.18 cm
Distance travelled (cm) ([3]; (−)-I-27 0.1 mg/kg i.p. + MK801 0.2 mg/kg, 15 minutes after MK801): 482.21 ± 74.21 cm
Distance travelled (cm) ([3]; (−)-I-27 0.1 mg/kg i.p. + MK801 0.2 mg/kg, 20 minutes after MK801): 708.05 ± 61.74 cm
Distance travelled (cm) ([3]; (−)-I-27 0.1 mg/kg i.p. + MK801 0.2 mg/kg, 25 minutes after MK801): 895.54 ± 92.18 cm
Distance travelled (cm) ([3]; (−)-I-27 0.1 mg/kg i.p. + MK801 0.2 mg/kg, 30 minutes after MK801): 1035.67 ± 122.77 cm
Distance travelled (cm) ([3]; (−)-I-27 0.1 mg/kg i.p. + MK801 0.2 mg/kg, 35 minutes after MK801): 1075.2 ± 123.55 cm
Distance travelled (cm) ([3]; (−)-I-27 0.1 mg/kg i.p. + MK801 0.2 mg/kg, 45 minutes after MK801): 942.97 ± 82.87 cm
Distance travelled (cm) ([3]; (−)-I-27 0.1 mg/kg i.p. + MK801 0.2 mg/kg, 50 minutes after MK801): 985.86 ± 96.6 cm
Distance travelled (cm) ([3]; (−)-I-27 0.1 mg/kg i.p. + MK801 0.2 mg/kg, 55 minutes after MK801): 925.44 ± 118.24 cm
Distance travelled (cm) ([3]; (−)-I-27 0.1 mg/kg i.p. + MK801 0.2 mg/kg, 60 minutes after MK801): 937.96 ± 121.52 cm
Distance travelled (cm) ([3]; (−)-I-27 0.1 mg/kg i.p. + MK801 0.2 mg/kg, 65 minutes after MK801): 931.08 ± 108.91 cm
Distance travelled (cm) ([3]; (−)-I-27 0.1 mg/kg i.p. + MK801 0.2 mg/kg, 70 minutes after MK801): 839.2 ± 104.29 cm
Distance travelled (cm) ([3]; (−)-I-27 0.1 mg/kg i.p. + MK801 0.2 mg/kg, 75 minutes after MK801): 773.65 ± 117.99 cm
Distance travelled (cm) ([3]; (−)-I-27 0.1 mg/kg i.p. + MK801 0.2 mg/kg, 80 minutes after MK801): 691.57 ± 121.79 cm
Distance travelled (cm) ([3]; (−)-I-27 0.1 mg/kg i.p. + MK801 0.2 mg/kg, 85 minutes after MK801): 682.97 ± 115.06 cm
Distance travelled (cm) ([3]; (−)-I-27 0.1 mg/kg i.p. + MK801 0.2 mg/kg, 90 minutes after MK801): 611.63 ± 112.71 cm
Distance travelled (cm) ([3]; (−)-I-27 0.1 mg/kg i.p. + MK801 0.2 mg/kg, 95 minutes after MK801): 432.95 ± 85.66 cm
Distance travelled (cm) ([3]; (−)-I-27 0.1 mg/kg i.p. + MK801 0.2 mg/kg, 100 minutes after MK801): 405.27 ± 69.97 cm
Distance travelled (cm) ([3]; (−)-I-27 0.1 mg/kg i.p. + MK801 0.2 mg/kg, 105 minutes after MK801): 391.87 ± 78.94 cm
Distance travelled (cm) ([3]; (−)-I-27 0.1 mg/kg i.p. + MK801 0.2 mg/kg, 110 minutes after MK801): 351.08 ± 112.22 cm
Distance travelled (cm) ([3]; (−)-I-27 0.1 mg/kg i.p. + MK801 0.2 mg/kg, 115 minutes after MK801): 310.3 ± 83.61 cm
Distance travelled (cm) ([3]; (−)-I-27 0.1 mg/kg i.p. + MK801 0.2 mg/kg, 120 minutes after MK801): 339.28 ± 95.35 cm
Distance travelled (cm) ([3]; (−)-I-27 0.1 mg/kg i.p., 0 minutes, before MK801): 446.62 ± 49.69 cm
Distance travelled (cm) ([3]; (−)-I-27 0.1 mg/kg i.p., −5 minutes, before MK801): 473.13 ± 38.54 cm
Distance travelled (cm) ([3]; (−)-I-27 0.1 mg/kg i.p., −10 minutes, before MK801): 479.62 ± 34 cm
Distance travelled (cm) ([3]; (−)-I-27 0.1 mg/kg i.p., −15 minutes, before MK801): 522.39 ± 41.17 cm
Distance travelled (cm) ([3]; (−)-I-27 0.1 mg/kg i.p., −20 minutes, before MK801): 606.78 ± 43.01 cm
Distance travelled (cm) ([3]; (−)-I-27 0.1 mg/kg i.p., −25 minutes, before MK801): 827.15 ± 76.34 cm
Distance (cm) travelled in 45 minutes ([3]; (−)-I-27 0.2 mg/kg i.p. + MK801 0.2 mg/kg): 5849.12 cm
Distance travelled (cm) ([3]; (−)-I-27 0.2 mg/kg i.p. + MK801 0.2 mg/kg, 5 minutes after MK801): 527.23 ± 55.9 cm
Distance travelled (cm) ([3]; (−)-I-27 0.2 mg/kg i.p. + MK801 0.2 mg/kg, 10 minutes after MK801): 353.73 ± 61.92 cm
Distance travelled (cm) ([3]; (−)-I-27 0.2 mg/kg i.p. + MK801 0.2 mg/kg, 15 minutes after MK801): 415.6 ± 122.18 cm
Distance travelled (cm) ([3]; (−)-I-27 0.2 mg/kg i.p. + MK801 0.2 mg/kg, 20 minutes after MK801): 555.77 ± 141.94 cm
Distance travelled (cm) ([3]; (−)-I-27 0.2 mg/kg i.p. + MK801 0.2 mg/kg, 25 minutes after MK801): 775.2 ± 174.1 cm
Distance travelled (cm) ([3]; (−)-I-27 0.2 mg/kg i.p. + MK801 0.2 mg/kg, 30 minutes after MK801): 815.56 ± 168.41 cm
Distance travelled (cm) ([3]; (−)-I-27 0.2 mg/kg i.p. + MK801 0.2 mg/kg, 35 minutes after MK801): 844.11 ± 141.81 cm
Distance travelled (cm) ([3]; (−)-I-27 0.2 mg/kg i.p. + MK801 0.2 mg/kg, 40 minutes after MK801): 771.62 ± 111.37| cm
Distance travelled (cm) ([3]; (−)-I-27 0.2 mg/kg i.p. + MK801 0.2 mg/kg, 45 minutes after MK801): 790.3 ± 145.96 cm
Distance travelled (cm) ([3]; (−)-I-27 0.2 mg/kg i.p. + MK801 0.2 mg/kg, 50 minutes after MK801): 741.75 ± 130.61 cm
Distance travelled (cm) ([3]; (−)-I-27 0.2 mg/kg i.p. + MK801 0.2 mg/kg, 55 minutes after MK801): 547.84 ± 71.53 cm
Distance travelled (cm) ([3]; (−)-I-27 0.2 mg/kg i.p. + MK801 0.2 mg/kg, 60 minutes after MK801): 707.09 ± 102.86 cm
Distance travelled (cm) ([3]; (−)-I-27 0.2 mg/kg i.p. + MK801 0.2 mg/kg, 65 minutes after MK801): 653.46 ± 142.7 cm
Distance travelled (cm) ([3]; (−)-I-27 0.2 mg/kg i.p. + MK801 0.2 mg/kg, 70 minutes after MK801): 449.29 ± 121.61 cm
Distance travelled (cm) ([3]; (−)-I-27 0.2 mg/kg i.p. + MK801 0.2 mg/kg, 75 minutes after MK801): 564.58 ± 153.01 cm

— patent US20240383913A1, “THIOPHENE RING COMPOUND, PREPARATION METHOD THEREFOR AND APPLICATION THEREOF” (CENTER FOR EXCELLENCE IN MOLECULAR CELL SCIENCE, CHINESE …, priority 2021, published 2024)
